Source: the NIST ThermoML archive (doi:10.1021/je700300y)

Assays:
[1] = refractive index (Na D-line) (dimensionless); conditions: 298.15 K; 101.33 kPa; Liquid; Standard Abbe refractometry
[2] = 101.33 kPa, Liquid
[3] = xn = mol fraction of the nth substance listed; conditions: 101 kPa, Liquid

CO [methanol]
Conditions	refractive index
[1]	1.327

[2]
Conditions	mass density [kg/m3]
283.15 K	800.67
288.15 K	795.98
293.15 K	791.28
298.15 K	786.57
303.15 K	781.85
308.15 K	777.1
313.15 K	772.32

CO [methanol] + CCO
mass density [kg/m3], [3]
Conditions	x1 = 0.0729	x1 = 0.1632	x1 = 0.3251	x1 = 0.5592	x1 = 0.6349	x1 = 0.7182	x1 = 0.8027	x1 = 0.8714	x1 = 0.9485
283.15 K	798.11	798.27	798.58	799.14	799.35	799.6	799.88	800.12	800.43
288.15 K	793.83	793.97	794.22	794.68	794.85	795.07	795.3	795.51	795.78
293.15 K	789.54	789.64	789.84	790.2	790.34	790.52	790.71	790.89	791.1
298.15 K	785.23	785.3	785.44	785.7	785.81	785.95	786.11	786.25	786.43
303.15 K	780.89	780.94	781.02	781.19	781.26	781.36	781.49	781.59	781.73
308.15 K	776.52	776.54	776.57	776.65	776.69	776.76	776.84	776.9	777.01
313.15 K	772.12	772.11	772.09	772.08	772.09	772.12	772.16	772.19	772.26

O [water]
Conditions	refractive index
[1]	1.3326

CCO [ethanol]
Conditions	refractive index
[1]	1.3595

[2]
Conditions	mass density [kg/m3]
283.15 K	797.99
288.15 K	793.73
293.15 K	789.47
298.15 K	785.18
303.15 K	780.87
308.15 K	776.52
313.15 K	772.14
